We go through 6 substances from patent publication US7199112B2, “Use of phospholipid arachidonic acids for increasing muscle mass in humans” (priority 2005, dated 2007).

In experiment [1] the test system is intestinal transport of certain nutrients. To be noted: cited from earlier work.
The test system of a further experiment is IGF-1 response. To be noted: certain cell studies; cited from earlier work.
Experiment [2] has as its system adrenocorticotropin (ACTH) and cortisol response. The conditions noted are these: intravenous infusion; cited from earlier work.
Experiment [3] relates to lean skeletal muscle mass. The conditions noted are these: peroral, humans, clinical study by the inventor.

Turning to Lysophosphatidylcholine, the “intestinal transport of certain nutrients” value in experiment [1] is reported as “increases”.

As for Phosphatidylcholine, the IGF-1 response entry with IGF-1 response is on record as “exert an IGF-1 response”.

As for Phosphatidylserine, in experiment [2], the “adrenocorticotropin (ACTH) and cortisol response to stressful exercise” value is recorded as “significantly suppresses”.

Regarding “lysophosphatidylcholine arachidonic acid”, the “increasing lean skeletal muscle mass” value in experiment [3] is listed as “effective”.

With phosphatidylcholine arachidonic acid, the “increasing lean skeletal muscle mass” value in experiment [3] is recorded as “effective”.

Regarding phosphatidylserine arachidonic acid, the “increasing lean skeletal muscle mass” value in experiment [3] is “effective”.
